Reference: patent publication US20230357233A1, “HETEROARYL COMPOUNDS, PREPARATION METHODS AND USES THEREOF” (INVENTISBIO CO., LTD., priority 2020, published 2023)

Molecular target: Ba/F3_KRAS^G12D cells (Homo sapiens, UniProt P01116, G12D, cells depend on it)
Assay: Ba/F3 KRAS^G12D cell proliferation assay (cell-titer Glo)
Type: cell-based
Details: cell growth inhibition, treated with the compounds for 3 days, read-out: BaF3_KRAS^G12D IC50
Method: Cells were seeded at a density of 5×10^3 per well into 96-well plate and incubated overnight. Serial diluted compounds were added to each well. Cells were treated with the compounds for 3 days, after which cell-titer Glo reagent (Promega #G7572) was used to assess cell proliferation. The luminescence signal was then collected on Tecan Spark plate reader. […] Cell growth inhibition of IC50 is calculated with the equation of Y=Bottom+(Top−Bottom)/(1+10^((LogIC50−X)*HillSlope))

Chain of Ba/F3_KRAS^G12D cells (P01116 whole entry G12D): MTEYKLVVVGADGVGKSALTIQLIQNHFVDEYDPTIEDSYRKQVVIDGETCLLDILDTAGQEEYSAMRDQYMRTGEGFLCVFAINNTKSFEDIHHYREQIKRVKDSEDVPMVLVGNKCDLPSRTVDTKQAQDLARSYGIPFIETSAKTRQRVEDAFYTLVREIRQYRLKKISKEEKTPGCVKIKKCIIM

SMILES	GI50
C#Cc1c(F)ccc2cc(O)cc(-c3c(F)c4nc(OC[C@@]56CCCN5C[C@H](F)C6)nc(N5CC6CCC(C5)N6)c4c4ncnn34)c12 (single isomer, unassigned) [Compound 155]	< 500 nM
C#Cc1c(F)ccc2cc(O)cc(-c3c(F)c4nc(OC[C@@]56CCCN5C[C@H](F)C6)nc(N5CC6CCC(C5)N6)c4c4ncnn34)c12 (single isomer, unassigned) [Compound 156]	< 500 nM
C#Cc1c(F)ccc2cc(O)cc(-c3ncc4c(N5CC6CCC(C5)N6)nc(OC[C@@]56CCCN5C[C@H](F)C6)nc4c3F)c12 [Compound 129]	< 500 nM
CCc1c(F)ccc2cc(O)cc(-c3ncc4c(N5CC6CCC(C5)N6)nc(OC[C@@]56CCCN5C[C@H](F)C6)nc4c3F)c12 [Compound 140]	< 500 nM
Cc1nc(-c2cc(O)cc3ccc(F)c(OC(F)F)c23)c(F)c2nc(OC[C@@]34CCCN3C[C@H](F)C4)nc(N3CC4CCC(C3)N4)c12 [Compound 144]	< 500 nM
CNC(=O)COc1nc(-c2cc(O)cc3ccccc23)c(F)c2nc(OC[C@@]34CCCN3C[C@H](F)C4)nc(N3CC4CCC(C3)N4)c12 [Compound 145]	500 to 5000 nM
CC#Cc1c(F)ccc2cc(O)cc(-c3nc(OC)c4c(N5CC6CCC(C5)N6)nc(OC[C@@]56CCCN5C[C@H](F)C6)nc4c3F)c12 [Compound 146]	< 500 nM
C#Cc1c(F)ccc2cccc(-c3nc(O)c4c(N5CC6CCC(C5)N6)nc(OC[C@@]56CCCN5C[C@H](F)C6)nc4c3F)c12 [Compound 154]	500 to 5000 nM
CCc1cccc2cc(N)cc(-c3nc(OC)c4c(N5CC6CCC(C5)N6)nc(OC[C@@]56CCCN5C[C@H](F)C6)nc4c3F)c12 [Compound 157]	< 500 nM
C#Cc1c(F)ccc2cc(O)cc(-c3nc(OC)c4c(N5CC6CCC(C5)N6)ncnc4c3F)c12 [Compound 161]	< 500 nM
C#Cc1c(F)ccc2cc(O)cc(-c3nc(OC)c4c(N5CC6CCC(C5)N6)nc(OC)nc4c3F)c12 [Compound 162]	< 500 nM
CCc1c(F)ccc2cc(N)cc(-c3nc(OC)c4c(N5CC6CCC(C5)N6)nc(OC[C@@]56CCCN5C[C@H](F)C6)nc4c3F)c12 [Compound 164]	< 500 nM
C#Cc1c(F)ccc2cc(O)cc(-c3nc(OC)c4c(N5CC6CCC(C5)N6)nc(OC[C@@]56CCCN5[C@H](COC(=O)N(C)C)CC6)nc4c3F)c12 [Compound 175]	< 500 nM
C#Cc1c(F)ccc2cc(O)cc(-c3nc(OC)c4c(N5CC6CCC(C5)N6)nc(OC[C@@]56CCCN5[C@@H](COC(=O)N(C)C)CC6)nc4c3F)c12 [Compound 177]	< 500 nM
C#Cc1c(F)ccc2cc(O)cc(-c3nc(OC)c4c(N5CC6CCC(C5)N6)nc(OC[C@]56CCCN5[C@H](COC(=O)N(C)C)CC6)nc4c3F)c12 [Compound 178]	< 500 nM
C#Cc1c(F)ccc2cc(O)cc(-c3nc(OCC(F)F)c4c(N5CC6CCC(C5)N6)nc(OC[C@@]56CCCN5C[C@H](F)C6)nc4c3F)c12 [Compound 180]	< 500 nM
C#Cc1c(F)ccc2cc(O)cc(-c3nc(C4CC4)c4c(N5CC6CCC(C5)N6)nc(OC[C@@]56CCCN5C[C@H](F)C6)nc4c3F)c12 [Compound 181]	< 500 nM
C#Cc1c(F)ccc2cc(O)cc(-c3nc(OC)c4c(N5CC6CCC(C5)N6)nc(OCC5(CN(C)C)CC5)nc4c3F)c12 [Compound 182]	< 500 nM

SMILES	GI50
C#Cc1c(F)ccc2cc(O)cc(-c3nc(OC)c4c(N5CC6CCC(C5)N6)nc(OCC5(CN6CCCC6)CC5)nc4c3F)c12 [Compound 183]	< 500 nM
C#Cc1c(F)ccc2cc(O)cc(-c3nc(OC)c4c(N5CC6CCC(C5)N6)nc(OCC5(CN6CCC6)CC5)nc4c3F)c12 [Compound 184]	< 500 nM
C#Cc1c(F)ccc2cc(O)cc(-c3nc(OC(C)C)c4c(N5CC6CCC(C5)N6)nc(NC)nc4c3F)c12 [Compound 186]	500 to 5000 nM
C#Cc1c(F)ccc2cc(O)cc(-c3nc(O)c4c(N5CC6CCC(C5)N6)nc(NC)nc4c3F)c12 [Compound 187]	500 to 5000 nM
C#Cc1c(F)ccc2cc(O)cc(-c3nc(OC(C)C)c4c(N5CC6CCC(C5)N6)nc(N)nc4c3F)c12 [Compound 188]	500 to 5000 nM
C#Cc1c(F)ccc2cc(O)cc(-c3nc(OC(C)C)c4c(N5CC6CCC(C5)N6)nc(N(C)C)nc4c3F)c12 [Compound 189]	500 to 5000 nM
C#Cc1c(F)ccc2cc(O)cc(-c3nc(OC(C)C)c4c(N5CC6CCC(C5)N6)nc(C(F)F)nc4c3F)c12 [Compound 190]	< 500 nM
C#Cc1c(F)ccc2cc(O)cc(-c3nc(OC(C)C)c4c(N5CC6CCC(C5)N6)nc(OC)nc4c3F)c12 [Compound 191]	< 500 nM
C#Cc1c(F)ccc2cc(O)cc(-c3nc(OC(C)C)c4c(N5CC6CCC(C5)N6)nc(OCCOC)nc4c3F)c12 [Compound 192]	< 500 nM
C#Cc1c(F)ccc2cc(O)cc(-c3nc(OC(C)C)c4c(N5CC6CCC(C5)N6)nc(OCCN(C)C)nc4c3F)c12 [Compound 194]	< 500 nM
Cc1nc(N)cc(-c2nc(OC(C)C)c3c(N4CC5CCC(C4)N5)nc(OC[C@@]45CCCN4C[C@H](F)C5)nc3c2F)c1C(F)(F)F [Compound 198]	< 500 nM
C#Cc1c(F)ccc2cc(N)cc(-c3nc(O)c4c(N5CC6CCC(C5)N6)nc(OC[C@@]56CCCN5C[C@H](F)C6)nc4c3F)c12 [Compound 201]	500 to 5000 nM
C#Cc1c(F)ccc2c(F)c(N)cc(-c3nc(OC(C)C)c4c(N5CC6CCC(C5)N6)nc(OC[C@@]56CCCN5C[C@H](F)C6)nc4c3F)c12 [Compound 202]	< 500 nM
C#Cc1c(F)ccc2cc(O)cc(-c3nc(OC(C)C)c4c(N5CC6CCC(C5)N6)nc(OC[C@@H]5C[C@H](F)CN5C)nc4c3F)c12 [Compound 204]	< 500 nM
C#Cc1c(F)ccc2cc(O)cc(-c3nc(C4CC4)c4c(N5CC6CCC(C5)N6)ncnc4c3F)c12 [Compound 205]	< 500 nM
C#Cc1c(F)ccc2cc(N)cc(-c3nc(OC(C)C)c4c(N5CC6CCC(C5)N6)nc(OC[C@@H]5C[C@H](F)CN5C)nc4c3F)c12 [Compound 207]	< 500 nM
C#Cc1c(F)ccc2cc(N)cc(-c3nc(O)c4c(N5CC6CCC(C5)N6)nc(OC[C@@H]5C[C@@H](F)CN5C)nc4c3F)c12 [Compound 210]	500 to 5000 nM
C#Cc1c(F)ccc2cc(O)cc(-c3nc(O)c4c(N5CC6CCC(C5)N6)nc(C(F)F)nc4c3F)c12 [Compound 211]	500 to 5000 nM

The remaining lines, values ahead:

GI50	SMILES
< 500 nM	C#Cc1c(F)ccc2c(F)c(O)cc(-c3nc(C)c4c(N5CC6CCC(C5)N6)nc(OC[C@@]56CCCN5C[C@H](F)C6)nc4c3F)c12 [Compound 143]
< 500 nM	C#Cc1c(F)ccc2cc(O)cc(-c3nc(OC(C)C)c4c(N5CC6CCC(C5)N6)ncnc4c3F)c12 [Compound 150]
> 5000 nM	CCc1c(F)ccc2c(F)c(O)cc(-c3nc(C)c4c(N5CC6CCC(C5)N6)nc(OC[C@@]56CCCN5C[C@H](F)C6)nc4c3F)c12 [Compound 151]
500 to 5000 nM	C#Cc1c(F)ccc2cc(O)cc(-c3nc(OCC(F)(F)F)c4c(N5CC6CCC(C5)N6)ncnc4c3F)c12 [Compound 153]
< 500 nM	C#Cc1c(F)ccc2cc(N)cc(-c3nc(Cl)c4c(N5CC6CCC(C5)N6)nc(OC[C@@]56CCCN5C[C@H](F)C6)nc4c3F)c12 [Compound 158]
< 500 nM	Oc1cc(-c2nc(C(F)F)c3c(N4CC5CCC(C4)N5)nc(OC[C@@]45CCCN4C[C@H](F)C5)nc3c2F)c2c(Cl)c(F)ccc2c1 [Compound 167]
< 500 nM	C#Cc1c(F)ccc2cccc(-c3nc(OCC)c4c(N5CC6CCC(C5)N6)nc(OC[C@@]56CCCN5C[C@H](F)C6)nc4c3F)c12 [Compound 168]
< 500 nM	C#Cc1c(F)ccc2cc(O)cc(-c3nc(OCC)c4c(N5CC6CCC(C5)O6)nc(OC[C@@]56CCCN5C[C@H](F)C6)nc4c3F)c12 [Compound 169]
< 500 nM	C#Cc1c(F)ccc2cc(O)cc(-c3nc(C(F)(F)F)c4c(N5CC6CCC(C5)N6)nc(OC[C@@]56CCCN5C[C@H](F)C6)nc4c3F)c12 [Compound 170]
< 500 nM	C#Cc1c(F)ccc2cc(O)cc(-c3nc(OCC)c4c(N5CCNC6(CCC6)C5)nc(OC[C@@]56CCCN5C[C@H](F)C6)nc4c3F)c12 [Compound 172]
500 to 5000 nM	Oc1cc(-c2nc(O)c3c(N4CC5CCC(C4)N5)nc(OC[C@@]45CCCN4C[C@H](F)C5)nc3c2F)c2c(Cl)c(F)ccc2c1 [Compound 174]
< 500 nM	C#Cc1c(F)ccc2cc(O)cc(-c3nc(OC)c4c(N5CC6CCC(C5)N6)nc(OCC5(CN6CCOCC6)CC5)nc4c3F)c12 [Compound 185]
< 500 nM	C#Cc1c(F)ccc2cc(O)cc(-c3nc(O)c4c(N5CC6CCC(C5)N6)nc(OCCOC)nc4c3F)c12 [Compound 193]
500 to 5000 nM	C#Cc1c(F)ccc2cc(O)cc(-c3nc(O)c4c(N5CC6CCC(C5)N6)nc(OC[C@@H]5CCCN5C)nc4c3F)c12 [Compound 196]
< 500 nM	Cc1cc(-c2nc(OC(C)C)c3c(N4CC5CCC(C4)N5)nc(OC[C@@]45CCCN4C[C@H](F)C5)nc3c2F)c(C(F)(F)F)c(N)n1 [Compound 199]
< 500 nM	C#Cc1c(F)ccc2cc(N)cc(-c3nc(OC(C)C)c4c(N5CC6CCC(C5)N6)nc(OC[C@@]56CCCN5C[C@H](F)C6)nc4c3F)c12 [Compound 200]
< 500 nM	C#Cc1c(F)ccc2cc(O)cc(-c3nc(OC(C)C)c4c(N5CC6CCC(C5)N6C)nc(OC[C@@]56CCCN5C[C@H](F)C6)nc4c3F)c12 [Compound 203]
< 500 nM	C#Cc1c(F)ccc2cc(N)cc(-c3nc(OC(C)C)c4c(N5CC6CCC(C5)N6)nc(OC[C@@H]5C[C@@H](F)CN5C)nc4c3F)c12 [Compound 206]
< 500 nM	C#Cc1c(F)ccc2cc(N)cc(-c3nc(OC)c4c(N5CC6CCC(C5)N6)nc(OC[C@@H]5C[C@@H](F)CN5C)nc4c3F)c12 [Compound 208]
< 500 nM	C#Cc1c(F)ccc2cc(N)cc(-c3nc(OC)c4c(N5CC6CCC(C5)N6)nc(OC[C@@H]5C[C@H](F)CN5C)nc4c3F)c12 [Compound 209]
